From patent US4166182A, “6-N-Propyl-8-methoxymethyl or methylmercaptomethylergolines and related compounds” (priority 1978, dated 1979)
Structures can show the parent of a compound that is named as a salt. Where two headings read alike, the source gives them in different places.

Legend:
[1] = tested on: 6-hydroxydopamine-lesioned rats; assay: Turning behavior in 6-hydroxydopamine-lesioned (nigro-neostriatal-lesioned) rats; type: in vivo, rat; conditions: for Latency of Effect: 1 mg./kg. (Table I); for responders at 1 mg/kg: Rattus norvegicus, read-out: % of Rats Exhibiting Turning Behavior
Protocol: In this test, nigro-neostriatal-lesioned rats are employed, which are prepared by the procedure of Ungerstedt and Arbuthnott, Brain Res, 24, 485 (1970). A compound having dopamine agonist activity causes the rats to turn in circles contralateral to the side of the lesion. After a latency period, which varies from compound to compound, the number of turns is counted over a 15-minute period.
The compounds were dissolved in water and the aqueous solution injected into the rat by the intraperitoneal route.

[2] = tested on: prolactin; assay: Inhibition of serum prolactin in reserpine-treated male rats; type: in vivo, Sprague-Dawley rat; parameters: Serum Prolactin Level: unit not given here; conditions: for Serum Prolactin Level: reserpine-pretreated, controls: Exp. 1 30.4 ± 3.4, Exp. 2 55.2 ± 4.1, Exp. 3 42.3 ± 7.3; for inhibition in vivo at 0.05 mg/kg: Rattus norvegicus, read-out: Percent Inhibition of Serum Prolactin
Protocol: Adult male rats of the Sprague-Dawley strain weighing about 200 g. were housed in an air-conditioned room with controlled lighting (lights on 6 a.m.-8 p.m.) and fed lab chow and water ad libitum. Each rat received an intraperitoneal injection of 2.0 mg. of reserpine in aqueous suspension 18 hours before administration of the ergoline derivative. The purpose of the reserpine was to keep prolactin levels uniformly elevated. The compounds under test were dissolved in 10 percent ethanol at a concentration of 10 mcg/ml. and were injected intraperitoneally at a standard dose of 50 mcg/kg. Each compound was administered to a group of 10 rats, and a control group of 10 intact males received an equivalent amount of 10 percent ethanol. One hour after treatment all rats were killed by decapitation, and 150 μl aliquots of serum were assayed for prolactin. The results were evaluated statistically using Student's "t" test to calculate the level of significance, "p", of the changes in prolactin level.

[3] = tested on: prolactin; conditions: cited from earlier work
[4] = tested on: dopamine receptors; conditions: cited from earlier work
[5] = tested on: serotonin; assay: Serotonin agonism
[6] = tested on: Parkinsonism; conditions: in vivo; cited from earlier work
[7] = 50 mcg/kg IP, 1 hour after treatment

Row | SMILES | Duration of Effect ([1]; IP, 1 mg./kg.) | Latency of Effect ([1]; IP) | responders at 1 mg/kg ([1]; ip) | inhibition in vivo at 0.05 mg/kg ([2]; ip, 1 h) | further results
1 | CCCN1C[C@H](CSC)C[C@@H]2c3cccc4[nH]c(Br)c(c34)C[C@H]21 [D-2-bromo-6-n-propyl-8β-methylmercaptomethylergoline mesylate] | 1 h | 5 min | 100% | 89% | Serum Prolactin Level [2, 7]: 4.6 ± 0.4
2 | CCCN1C[C@H](COC)C[C@@H]2c3cccc4[nH]cc(c34)C[C@H]21 [D-6-n-propyl-8β-methoxymethylergoline methanesulfonate] | ≥ 2 h | 6 min | 100% | 96% | Serum Prolactin Level [2, 7]: 2.4 ± 0.2
3 | CC(C)[C@H]1C(=O)N2CCC[C@H]2[C@]2(O)O[C@](NC(=O)[C@@H]3C=C4c5cccc6[nH]cc(c56)C[C@H]4N(C)C3)(C(C)C)C(=O)N12 [ergocornine] |  |  |  |  | activity as prolactin inhibitors (in words) [3]: activity as prolactin inhibitors; dopamine receptor stimulation (in words) [4]: stimulate dopamine receptors
4 | CCCN1C[C@H](CSC)C[C@@H]2c3cccc4[nH]cc(c34)C[C@H]21 [D-6-n-Propyl-8β-methylmercaptomethylergoline] |  |  |  |  | serotonin agonist or antagonist (in words) [5]: serotonin agonists rather than serotonin antagonists
5 | CSC[C@@H]1C[C@@H]2c3cccc4[nH]cc(c34)C[C@H]2N(C)C1 [D-6-methyl-8β-methylmercaptomethylergoline mesylate, reference compound] | ~ 2 hours | 30 to 45 min | 50% | 58% | 
6 | CCCN1C[C@H](C[S+](C)[O-])C[C@@H]2c3cccc4[nH]cc(c34)C[C@H]21 (stereo partly drawn) [D-6-n-propyl-8β-methylsulfinylmethylergoline mesylate] | 1 h | 7 min | 100% | 92% | 
7 | CN1C[C@H](CC#N)C[C@@H]2c3cccc4[nH]c(Cl)c(c34)C[C@H]21 [lergotrile] |  |  |  |  | usefulness in the treatment of Parkinsonism (in words) [6]: useful in the treatment of Parkinsonism
8 | CC(C)C[C@H]1C(=O)N2CCC[C@H]2[C@]2(O)O[C@](NC(=O)[C@@H]3C=C4c5cccc6[nH]c(Br)c(c56)C[C@H]4N(C)C3)(C(C)C)C(=O)N12 [2-bromo-α-ergokryptine] |  |  |  |  | usefulness in the treatment of Parkinsonism (in words) [6]: useful in the treatment of Parkinsonism; activity as prolactin inhibitors (in words) [3]: activity as prolactin inhibitors
9 | CN1CC(CC#N)C[C@@H]2c3cccc4[nH]cc(c34)C[C@H]21 (stereo partly drawn) [D-6-methyl-8-cyanomethylergoline] |  |  |  |  | activity as prolactin inhibitors (in words) [3]: activity as prolactin inhibitors
10 | CCN1C[C@H](CSC)C[C@@H]2c3cccc4[nH]cc(c34)C[C@H]21 [D-6-ethyl-8β-methylmercaptomethylergoline mesylate] | ≥ 2 h | 9 min | 100% | 91% | Serum Prolactin Level [2, 7]: 3.9 ± 0.4
11 | CC(C)[C@H]1C(=O)N2CCC[C@H]2[C@]2(O)O[C@](NC(=O)[C@@H]3C[C@@H]4c5cccc6[nH]cc(c56)C[C@H]4N(C)C3)(C(C)C)C(=O)N12 [dihydroergocornine] |  |  |  |  | activity as prolactin inhibitors (in words) [3]: activity as prolactin inhibitors
12 | CCCN1C[C@H](CSC)C=C2c3cccc4[nH]cc(c34)C[C@H]21 [D-6-n-propyl-8β-methylmercaptomethyl-9-ergolene] | ≥ 2 h | 4 min | 100% | 81% | 
13 | CCCN1C[C@H](CSC)C[C@@H]2c3cccc4[nH]cc(c34)C[C@H]21 [D-6-n-propyl-8β-methylmercaptomethylergoline methanesulfonate] |  |  |  |  | responders at 1 mg/kg ([1]; IP, 1 mg./kg., aqueous solution): 100%; times more potent in the turning behavior test than the corresponding D-6-methyl derivative ([1]; from dose response curves): about 30 times; inhibition in vivo at 0.05 mg/kg ([2]; 50 mcg/kg IP, 1 hour after treatment, versus control of same experiment): 95%; times more potent as a prolactin inhibitor than the corresponding D-6-methyl compound ([2]; from dose response curves): about 100 times
14 | CCCN1CC(CSC)=C[C@@H]2c3cccc4[nH]cc(c34)C[C@H]21 [D-6-n-propyl-8-methylmercaptomethyl-8-ergolene maleate] | 1 h | 4 min | 100% | 91% | Serum Prolactin Level [2, 7]: 3.9 ± 0.2
